Results reported in patent publication US20160077081A1, “METHOD FOR A CELL-BASED DRUG SCREENING ASSAY AND THE USE THEREOF” (QGEL SA, priority 2013, published 2016).

Key:
[1] = tested on: Colon cancer HCT 116 cells; assay: Image-based analysis of cancer cell spheroid size in a three-dimensional matrix after early-/late-stage treatment; conditions: early-stage treatment, IC50 and 1 mM
Method: In FIG. 3B an image-based analysis quantifying the distribution of diameter sizes of cell colonies, specifically cancer spheroids measured immediately after “early-” and “late-stage” treatment is shown as an example of a selection of drugs from FIG. 3 A at a drug concentration of 10 μM. Filled curves correspond to “hits” and unfilled curves are “no Hits” as determined using metabolic readouts at the ends of “early stage” and “late-stage” (Positive control: Cells treated with copper sulphate; negative control; Cells treated with DMSO).
In FIG. 4 the determination of the half maximal inhibitory concentration (IC50) as an Alamar Blue® readout of selected “Hits” in FIG. 2, example 5-Fluorouracil (5-FU), on colonies of Colon cancer HCT 116 cells is shown. The readout was performed immediately after “early-” and “late-stage” treatments of cells in a three-dimensional matrix. […] The IC50 curves obtained with two-dimensional reference assays are often similar to “early-stage” treatment conditions of the present invention (three-dimensional). This is also shown in the drug screening correlation of most “Hits” observed with the two assay methods in FIG. 3 A (upper panel). In FIG. 4 B an image-based analysis of cancer cell spheroids grown in a three-dimensional matrix after “early-” and “late-stage” treatment at selected drug concentrations, IC50 and 1 mM, are shown.

[2] = tested on: Colon cancer HCT 116 cells; assay: Alamar Blue metabolic readout on colonies of HCT 116 cells in a three-dimensional matrix, early-/late-stage treatment schedule; assay type: cell-based; conditions: for Hit in drug screening (metabolic readout, Alamar Blue): 10 μM
Method: An example is given comprising an “early-” and a “late-stage” drug treatment for cells grown in three-dimensional matrices. Conditions of different cancer stages are identified, derived from profiling assays, as in FIG. 1, and schedules for drug screening are determined accordingly. Here, different cancer stages for cells cultured in three-dimensional matrices are determined as “early-” and “late-stage” cancer treatment.
The “early-stage” comprises two time points for readout. The first point of time at day seven is at the end of the drug treatment, whereas the second point in time at day eleven follows a drug-free recovery phase. The “late-stage” comprises two time points for readout. The first point in time at day seventeen is at the end of a second (independent from “early-stage”) drug treatment phase. The second point in time at day twenty-one follows a drug-free recovery phase. Measurements at additional points in time can be performed before the start of treatment and/or after different drug-free recovery phases.
In contrary, the “late-stage” illustrates existence of larger spheroids with a diameter of 155 μm, low cell proliferation (shown in FIG. 9), and presence of hypoxic condition (FIG. 1C). In both cases, the readouts are performed immediately after treatment end to test immediate drug efficacy, and after a four-day drug-free period to test recurrence of “mini-tumour” growth and/or retarded drug effects as the case observed with Gemcitabine (FIG. 10).
As an example for “Hit” generation a selection of drugs from a commercially available drug library (Prestwick) is used. In A) the effect of sixty drugs on cancer cells measured by metabolic readout (Alamar Blue®) is shown. […]
In FIG. 4 the determination of the half maximal inhibitory concentration (IC50) as an Alamar Blue® readout of selected “Hits” in FIG. 2, example 5-Fluorouracil (5-FU), on colonies of Colon cancer HCT 116 cells is shown. The readout was performed immediately after “early-” and “late-stage” treatments of cells in a three-dimensional matrix. […]

[3] = tested on: Pancreatic Panc-1 cancer cells; assay: Two-dimensional reference assay on pancreatic cancer cells; assay type: cell-based
Method: For reference two-dimensional assays, cells are normally tested with drugs within the logarithmic proliferations phase between day one to four (FIG. 9). […] The dose-dependant efficacy profiles for “late-stage” treatment with Gemcitabine on pancreatic cancer cells culture in three-dimensional matrices were measured according to Alamar Blue® readout before and after the drug-free recovery period of four to seven, days.

[4] = tested on: Pancreatic Panc-1 cancer cells; assay: Alamar Blue readout on Panc-1 cells in three-dimensional matrices, late-stage treatment with or without drug-free recovery; assay type: cell-based
Description: The “early-stage” comprises two time points for readout. The first point of time at day seven is at the end of the drug treatment, whereas the second point in time at day eleven follows a drug-free recovery phase. The “late-stage” comprises two time points for readout. The first point in time at day seventeen is at the end of a second (independent from “early-stage”) drug treatment phase. The second point in time at day twenty-one follows a drug-free recovery phase. Measurements at additional points in time can be performed before the start of treatment and/or after different drug-free recovery phases. […] The dose-dependant efficacy profiles for “late-stage” treatment with Gemcitabine on pancreatic cancer cells culture in three-dimensional matrices were measured according to Alamar Blue® readout before and after the drug-free recovery period of four to seven, days.

O=c1[nH]cc(F)c(=O)[nH]1 [5-FU, 5-Fluorouracil]
Inhibition of spheroid growth [1]: strong inhibition | Hit in drug screening (metabolic readout, Alamar Blue) ([2]; triplicate, selected Hit of the screening campaign, stage not stated): Hits | Hit in drug screening (metabolic readout, Alamar Blue) ([2]; late-stage treatment, three-dimensional matrix): no Hit | Potency (IC50 shift) from early to late treatment ([2]; late-stage versus early-stage treatment, readout immediately after treatment, three-dimensional matrix): less potent

Nc1ccn([C@@H]2O[C@H](CO)[C@@H](O)C2(F)F)c(=O)n1 [Gemcitabine]
Activity (dose-dependent efficacy) [3]: not shown to be active | Cell growth inhibition (dose-dependent efficacy, Alamar Blue) ([4]; measured after drug-free recovery period of four to seven days): potent cell growth inhibitor | Activity (dose-dependent efficacy, Alamar Blue) ([4]; measured immediately after the treatment): not shown to be active
